# Structures can show the parent of a compound that is named as a salt.
# Biological target: T1, rh beta trypsin (Homo sapiens, UniProt P20231)
# T1 construct: purchased Promega
# Test: Trypsin (tryptase) inhibition, cleavage of N-p-Gly-Pro-Lys-para-nitroaniline measured at 405 nm
# Format: biochemical
# Conditions: in vitro; tris-HCl buffer pH 7.4 with calcium and heparin; substrate 0.6 mM; 5 minutes, 37° C.; read-out: Trypsin-inhibiting property
# Protocol: The compounds of the invention are notable for their effective trypsin-inhibiting property. The said capacity to inhibit trypsin activity was determined in accordance with the following trial descriptions.
# The determinations are carried out in tris-HCl buffer (100 mM), that also contained calcium (5 mM) and heparin ([…]), at a pH of 7.4. As the standard, rh beta trypsin is used, this is commercially obtainable, for example, from Promega. A suitable substrate is N-p-Gly-Pro-Lys-para-nitroaniline in a concentration of 0.6 mM. The substrate is digested with trypsin, whereby p-nitro-aniline is obtained that can be measured at 405 nm. Normally, an incubation period of 5 minutes and an incubation temperature of 37° C. is chosen. For the enzyme activity, 0.91 U/ml are used. The determination is carriedout in an auto-analyser (Cobas Bio) from the firm Hoffmann LaRoche. The potential inhibitor substances are used in the screening procedure in concentrations of 10 μM, and the inhibition of the trypsin is given in percentages. At an inhibition in excess of 70%, the IC50 is determined (the concentration at which 50% of the enzyme activity is inhibited). After a 5-minute pre-incubation of the potential inhibiting substance, the substrate is added for the start of the reaction, whereby the production of p-nitro-aniline is taken, after 5 minutes, after testing the linearity, as a measure of the enzyme activity.
# T1 sequence (P20231 31-275): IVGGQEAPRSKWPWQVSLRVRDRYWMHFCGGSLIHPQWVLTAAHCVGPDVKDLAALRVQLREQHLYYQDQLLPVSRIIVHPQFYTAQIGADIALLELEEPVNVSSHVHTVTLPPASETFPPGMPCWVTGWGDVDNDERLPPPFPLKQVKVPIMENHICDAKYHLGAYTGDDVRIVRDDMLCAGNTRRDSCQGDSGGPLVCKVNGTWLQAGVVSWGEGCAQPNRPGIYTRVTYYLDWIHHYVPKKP
row,Compound,IC50 [nM]
1,"Cn1c(CCc2ccc(C(=N)N)cc2)nc2cc(C(=O)N3CCC(NC(=O)Nc4ccc(F)cc4)CC3)ccc21 [Example 42, 4-[2-(5-{4-[3-(4-Fluoro-phenyl)-ureido]-piperidine-1-carbonyl}-1-methyl-1H-benzimidazole-2-yl)-ethyl]-benzamidine]",1 to 20
2,"CN(C(=O)c1ccccc1)C1CCN(C(=O)c2ccc3c(c2)nc(CCc2ccc(C(=N)N)cc2)n3C)CC1 [Example 53, 2-[2-(4-Amidinophenyl)-ethyl]-1-methyl-benzimidazole-5-yl-carbooxylic acid-[4-(N-methyl)benzamidopiperidinyl]-amide]",1 to 20
3,"CCOCCCn1c(CCc2ccc(C(=N)N)cc2)nc2cc(C(=O)N3CCC(NC(=O)Nc4ccccc4)CC3)ccc21 [Example 20, 2-[2-(4-Amidinophenyl)-ethyl]-1-(3-ethoxy-propyl)-benzimidazol-5-yl-carbonsäure-[4-(3-phenyl-ureido)-piperidinyl]-amid-dihydrochlorid]",1 to 20
4,CN(C1CCN(C(=O)c2ccc3c(c2)nc(CCc2ccc(C(=N)N)cc2)n3C)CC1)S(=O)(=O)/C=C/c1ccccc1 [Example 166],1 to 20
5,Cn1c(CCc2ccc(C(=N)N)cc2)nc2cc(C(=O)N3CCC(NC(=O)c4cccc(Cl)c4Cl)CC3)ccc21 [Example 67],0.1 to 1
6,"Cn1c(CCc2ccc(C(=N)N)cc2)nc2cc(C(=O)N3CCC(NC(=O)c4cccc(Cl)c4)CC3)ccc21 [Example 44, 2-[2-(4-Amidinophenyl)-ethyl]-1-methyl-benzimidazole-5-yl-carboxylic acid-[4-(3-chloro)-benzamidopiperidinyl)-amide]",0.1 to 1
7,CCCCS(=O)(=O)NC1CCN(C(=O)c2ccc3c(c2)nc(CCc2ccc(C(=N)N)cc2)n3C)CC1 [Example 173],20 to 50
8,"Cn1c(CCc2ccc(C(=N)N)cc2)nc2cc(C(=O)N3CCC(NC(=O)Nc4ccc(C(F)(F)F)cc4)CC3)ccc21 [Example 41, 4-[2-(1-Methyl-5-{4-[3-(4-trifluoromethyl-phenyl)-ureido]-piperidine-1-carbonyl}-1H-benzimidazole-2-yl)-ethyl]-benzamidine]",1 to 20
9,"COc1ccccc1NC(=O)NC1CCN(C(=O)c2ccc3c(c2)nc(CCc2ccc(C(=N)N)cc2)n3C)CC1 [Example 30, 4-[2-(5-{4-[3-(2-Methoxy-phenyl)-ureido]-piperidine-1-carbonyl}-1-methyl-1H-benzimidazole-2-yl)-ethyl]-benzamidine]",1 to 20
10,"Cn1c(CCc2ccc(C(=N)N)cc2)nc2cc(C(=O)N3CCC(NC(=O)Nc4cccc5ccccc45)CC3)ccc21 [Example 34, 4-(2-{1-Methyl-5-[4-(3-naphthalen-1-yl-ureido)-piperidine-1-carbonyl]-1H-benzimidazole-2-yl}-ethyl)-benzamidine]",1 to 20
11,"Cn1c(CCc2ccc(C(=N)N)cc2)nc2cc(C(=O)N3CCC(NC(=O)Nc4cccc(F)c4)CC3)ccc21 [Example 26, 4-[2-(5-{4-[3-(3-Fluoro-phenyl)-ureido]-piperidine-1-carbonyl}-1-methyl-1H-benzimidazole-2-yl)-ethyl]-benzamidine]",1 to 20
12,"CN(C(=O)Nc1cccc(Cl)c1Cl)C1CCN(C(=O)c2ccc3c(c2)nc(CCc2ccc(C(=N)N)cc2)n3C)CC1 [Example 55, 2-[2-(4-Amidinophenyl)-ethyl]-1-methyl-benzimidazole-5-yl-carboxylic acid-{4-[3-(2,3-dichloro)-phenyl-1-methyl-ureido]piperidinyl)-amide]",1 to 20
13,Cc1c(Cl)cccc1S(=O)(=O)N(C)C1CCN(C(=O)c2ccc3c(c2)nc(CCc2ccc(C(=N)N)cc2)n3C)CC1 [Example 170],1 to 20
14,"Cn1c(CCc2ccc(C(=N)N)cc2)nc2cc(C(=O)N3CCC(NC(=O)Nc4ccccc4Cl)CC3)ccc21 [Example 29, 4-[2-(5-{4-[3-(2-Chloro-phenyl)-ureido]-piperidine-1-carbonyl}-1-methyl-1H-benzimidazole-2-yl)-ethyl]-benzamidine]",0.1 to 1
15,CCCCS(=O)(=O)N(C)C1CCN(C(=O)c2ccc3c(c2)nc(CCc2ccc(C(=N)N)cc2)n3C)CC1 [Example 168],1 to 20

# From patent publication US6855713B2, “Benzimidazole derivatives, a process for their manufacture and use as a medicine” (Boehringer Ingelheim Pharma KG, priority 2001, dated 2005)
